13 compounds from patent publication US12180207B2 (ARRAY BIOPHARMA INC., priority 2018, dated 2024) can be followed below.

Molecules are shown by their SMILES.

Test [1] deals with FGFR1 (SEQ ID NO: 1, amino acids 458-765) (Homo sapiens (Human), UniProt P11362). The test can be described thus: LC/MS FGFR1 kobs assay (covalent protein modification). Format: binding. The following applies: 500 nM FGFR1, 3 μM compound. In a few lines:
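Covalent labeling of FGFR1 kinase domain (aa 458-765) tracked over time by intact-protein LC/MS after formic acid quench. kobs derived by fitting DMSO-normalized percent unmodified FGFR1 to an exponential decay model.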

Test [2] has as its target FGFR3 (SEQ ID NO: 5, amino acids 449-759) (Homo sapiens (Human), UniProt P22607). The experiment in a line: LC/MS FGFR3 kobs assay (covalent protein modification). Format: binding. The conditions noted are these: 500 nM FGFR3, 3 μM compound. Summed up: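 Timed reactions were stopped with 0.4% formic acid, and covalent adduct formation was measured by LC/MS on a Q-TOF with deconvolution of protein masses. Modified signal was normalized to DMSO-control unmodified protein at each time point; percent unmodified protein was fit to exponential decay to give kobs.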

The target of test [3] is phosphorylated FGFR3 (SEQ ID NO: 5, amino acids 449 to 759) (Homo sapiens (Human), UniProt P22607). The experiment in a line: FGFR enzyme binding assay (HTRF tracer displacement), FGFR3. The conditions noted are these: 5 nM phosphorylated FGFR3, average of multiple determinations if made. Summed up: (§1)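 Compounds were tested for displacement of a tracer from human FGFR kinase in a time-resolved FRET binding format. After 60 minutes at 22° C, signal was read at two wavelengths and converted to percent of control, normalised between untreated wells and 1 μM reference inhibitor.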

The target of test [4] is HEK-293 cells transfected with dox-inducible human wild type FGFR1 (Homo sapiens (Human), UniProt P11362). The test can be described thus: FGFR1 pERK cell assay. Format: cell-based. The conditions noted are these: HEK-293 dox-inducible FGFR1, 1 hour compound, 100 ng/ml FGF-acidic; maximum concentration 5 μM. Summed up: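 In HEK-293 cells with dox-induced human wild-type FGFR1, compounds (1:3 dilutions, top 5 μM final) were applied 1 h at 37°C before 5 min stimulation with 100 ng/ml FGF-acidic. Phospho-ERK1/2 measured by MSD sandwich immunoassay; IC50 from 4-parameter fit of POC versus vehicle and control compound.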

Test [5] has as its target dephosphorylated FGFR1 (SEQ ID NO: 1, amino acids 458 to 765) (Homo sapiens (Human), UniProt P11362). The test can be described thus: FGFR enzyme binding assay (HTRF tracer displacement), FGFR1. The conditions noted are these: 5 nM dephosphorylated FGFR1, average of multiple determinations if made. In a few lines: as §1
The target in test [6] is recombinant human FGFR2 cytoplasmic domain (amino acids 403-822) (Homo sapiens (Human), UniProt P21802). The test can be described thus: FGFR2 enzyme activity assay (LanthaScreen TR-FRET). The conditions noted are these: 15 μM ATP, 20 min incubation at 22° C., average of multiple determinations if made, read-out: FGFR2 Enz FRET IC50. Format: biochemical. In a few lines:
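His-tagged FGFR2 cytoplasmic domain ([…]) with 100 nM Alexa Fluor 647-poly-GT peptide and 15 μM ATP in HEPES/MgCl2/Triton buffer, pH 7.5, 2% DMSO, 20 min at 22 °C. EDTA-quenched, Eu-PY20 antibody added, TR-FRET read after 60 min.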

phosphorylated FGFR3 (SEQ ID NO: 5, amino acids 449 to 759), sequence (P22607 449-759): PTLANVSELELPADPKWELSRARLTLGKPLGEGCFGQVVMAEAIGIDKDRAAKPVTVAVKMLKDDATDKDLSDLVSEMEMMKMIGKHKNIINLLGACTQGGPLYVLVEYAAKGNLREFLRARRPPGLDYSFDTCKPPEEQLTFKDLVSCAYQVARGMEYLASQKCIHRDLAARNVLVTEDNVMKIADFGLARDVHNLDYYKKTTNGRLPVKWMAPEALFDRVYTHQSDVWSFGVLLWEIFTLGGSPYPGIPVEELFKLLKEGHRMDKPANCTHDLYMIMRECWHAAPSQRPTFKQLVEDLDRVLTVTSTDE
FGFR3 (SEQ ID NO: 5, amino acids 449-759), sequence (P22607 449-759): as above
FGFR1 (SEQ ID NO: 1, amino acids 458-765), sequence (P11362 458-765): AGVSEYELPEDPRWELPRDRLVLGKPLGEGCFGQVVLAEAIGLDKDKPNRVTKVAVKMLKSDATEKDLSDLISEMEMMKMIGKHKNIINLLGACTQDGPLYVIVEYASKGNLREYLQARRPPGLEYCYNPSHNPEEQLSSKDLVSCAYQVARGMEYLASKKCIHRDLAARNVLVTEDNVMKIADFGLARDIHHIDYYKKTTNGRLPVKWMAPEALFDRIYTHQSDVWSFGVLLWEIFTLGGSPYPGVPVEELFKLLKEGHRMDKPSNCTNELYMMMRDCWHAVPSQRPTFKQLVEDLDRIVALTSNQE
dephosphorylated FGFR1 (SEQ ID NO: 1, amino acids 458 to 765), sequence (P11362 458-765): as above
HEK-293 cells transfected with dox-inducible human wild type FGFR1, sequence (P11362 22-822): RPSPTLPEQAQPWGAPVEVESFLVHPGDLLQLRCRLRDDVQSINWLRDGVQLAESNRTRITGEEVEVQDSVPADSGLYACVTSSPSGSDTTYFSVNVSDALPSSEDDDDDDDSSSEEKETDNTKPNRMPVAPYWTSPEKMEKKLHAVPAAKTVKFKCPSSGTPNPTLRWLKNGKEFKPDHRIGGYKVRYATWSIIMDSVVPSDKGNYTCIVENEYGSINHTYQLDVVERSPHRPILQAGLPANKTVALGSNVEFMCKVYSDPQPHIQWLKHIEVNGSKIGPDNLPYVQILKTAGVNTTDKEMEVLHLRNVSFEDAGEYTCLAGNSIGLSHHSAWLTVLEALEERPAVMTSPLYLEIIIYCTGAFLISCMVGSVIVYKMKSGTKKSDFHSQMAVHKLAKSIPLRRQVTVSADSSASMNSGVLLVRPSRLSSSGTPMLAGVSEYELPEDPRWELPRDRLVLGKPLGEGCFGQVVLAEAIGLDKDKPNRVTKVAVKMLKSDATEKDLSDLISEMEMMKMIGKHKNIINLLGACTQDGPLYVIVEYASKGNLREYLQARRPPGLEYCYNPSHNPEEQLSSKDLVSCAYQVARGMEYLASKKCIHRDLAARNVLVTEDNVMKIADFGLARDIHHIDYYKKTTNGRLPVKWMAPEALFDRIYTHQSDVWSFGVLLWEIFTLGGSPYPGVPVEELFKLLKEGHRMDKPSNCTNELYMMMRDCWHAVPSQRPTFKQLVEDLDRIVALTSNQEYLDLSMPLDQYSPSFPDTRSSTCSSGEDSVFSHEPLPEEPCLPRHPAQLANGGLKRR
recombinant human FGFR2 cytoplasmic domain (amino acids 403-822), sequence (P21802 402-821): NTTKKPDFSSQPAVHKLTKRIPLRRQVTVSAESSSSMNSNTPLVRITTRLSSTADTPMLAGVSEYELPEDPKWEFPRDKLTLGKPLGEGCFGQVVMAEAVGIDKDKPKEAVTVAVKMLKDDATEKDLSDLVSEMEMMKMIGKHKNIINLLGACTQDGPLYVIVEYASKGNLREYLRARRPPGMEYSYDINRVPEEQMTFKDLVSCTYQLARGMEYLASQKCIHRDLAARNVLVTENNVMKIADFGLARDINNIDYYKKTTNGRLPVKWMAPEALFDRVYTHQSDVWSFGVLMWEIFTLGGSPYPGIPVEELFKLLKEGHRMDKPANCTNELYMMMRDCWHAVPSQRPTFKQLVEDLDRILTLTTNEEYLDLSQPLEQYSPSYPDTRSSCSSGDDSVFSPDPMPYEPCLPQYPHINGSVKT

With `C=CC(=O)N1CC(CN2CCC(n3ncc(-c4cc(OC)c5c(C#N)cnn5c4)c3C)CC2)C1(C)C` (stereo not drawn) [Example 151, 6-(1-(1-((1-acryloyl-2,2-dimethylazetidin-3-yl)methyl)piperidin-4-yl)-5-methyl-1H-pyrazol-4-yl)-4-methoxypyrazolo [1,5-a]pyridine-3-carbonitrile], in test [1], the “FGFR1 Enz kobs” value was 0.0008 min⁻¹. In test [2], the “FGFR3 Enz kobs” value stood at 0.0082 min⁻¹. For the same compound, the IC50 in test [3] was 11 nM; in test [4] it was 1960 nM; in test [5] it was 171 nM; in test [6], 9 nM.
In the case of `COc1cc(-c2cnn(C3CCN(C(=O)C4CN(C(=O)/C=C/CN(C)C)C4)CC3)c2C)cn2ncc(C#N)c12` [Example 152, (E)-6-(1-(1-(1-(4-(dimethylamino)but-2-enoyl)azetidine-3-carbonyl)piperidin-4-yl)-5-methyl-1H-pyrazol-4-yl)-4-methoxypyrazolo [1,5-a]pyridine-3-carbonitrile], the “FGFR1 Enz kobs” value in test [1] amounted to 0.00338 min⁻¹. Also, the “FGFR3 Enz kobs” value in test [2] worked out at 0.03526 min⁻¹. The half-maximal inhibitory concentration (IC50) in test [3] was 7 nM; in test [4] it was at least 5000 nM; in test [5], 320 nM; in test [6], 35 nM.
As to `COc1cc(-c2cnn(C3CCN(C(=O)C4(F)CN(C(=O)/C=C/CN(C)C)C4)CC3)c2C)cn2ncc(C#N)c12` [Example 153, (E)-6-(1-(1-(1-(4-(dimethylamino)but-2-enoyl)-3-fluoroazetidine-3-carbonyl)piperidin-4-yl)-5-methyl-1H-pyrazol-4-yl)-4-methoxypyrazolo [1,5-a]pyridine-3-carbonitrile], in test [1], the “FGFR1 Enz kobs” value amounted to 0.00975 min⁻¹. The “FGFR3 Enz kobs” value in test [2] amounted to 0.1578 min⁻¹. The IC50 is 2 nM in test [3], 2 nM in test [4], 210 nM in test [5] and 4 nM in test [6].
Consider `COC/C=C/C(=O)N1CC(F)(C(=O)N2CCC(n3ncc(-c4cc(OC)c5c(C#N)cnn5c4)c3C)CC2)C1` [Example 154, (E)-6-(1-(1-(3-fluoro-1-(4-methoxybut-2-enoyl)azetidine-3-carbonyl)piperidin-4-yl)-5-methyl-1H-pyrazol-4-yl)-4-methoxypyrazolo [1,5-a]pyridine-3-carbonitrile], for which the “FGFR1 Enz kobs” value in test [1] is 0.00081 min⁻¹. For the same compound, the “FGFR3 Enz kobs” value in test [2] amounted to 0.00747 min⁻¹. Also, the IC50 in test [3] was 19 nM; in test [4], 2630 nM; in test [5] it was 430 nM; in test [6], 16 nM.
For the compound `CC#CC(=O)N1CC(F)(C(=O)N2CCC(n3ncc(-c4cc(OC)c5c(C#N)cnn5c4)c3C)CC2)C1` [Example 156, 6-(1-(1-(1-(but-2-ynoyl)-3-fluoroazetidine-3-carbonyl)piperidin-4-yl)-5-methyl-1H-pyrazol-4-yl)-4-methoxypyrazolo [1,5-a]pyridine-3-carbonitrile], in test [1], the “FGFR1 Enz kobs” value was 0.0008 min⁻¹. Also, the “FGFR3 Enz kobs” value in test [2] turned out to be 0.00585 min⁻¹. Further, the half-inhibitory concentration (IC50) is 18 nM in test [3], 3110 nM in test [4], 598 nM in test [5] and 84 nM in test [6].
`COc1cc(-c2cnn(C3CCN(C(=O)C4(C)CN(C(=O)/C=C/CN(C)C)C4)CC3)c2C)cn2ncc(C#N)c12` [Example 157, (E)-6-(1-(1-(1-(4-(dimethylamino)but-2-enoyl)-3-methylazetidine-3-carbonyl)piperidin-4-yl)-5-methyl-1H-pyrazol-4-yl)-4-methoxypyrazolo [1,5-a]pyridine-3-carbonitrile]: the “FGFR1 Enz kobs” value in test [1] is 0.0025 min⁻¹. In test [2], the “FGFR3 Enz kobs” value was 0.03267 min⁻¹. Further, the half-maximal inhibitory concentration (IC50) is 6 nM in test [3], at least 5000 nM in test [4], 274 nM in test [5] and 30 nM in test [6].
Regarding `COc1cc(-c2cnn(C3CCN(C(=O)C4(OC)CN(C(=O)/C=C/CN(C)C)C4)CC3)c2C)cn2ncc(C#N)c12` [Example 158, (E)-6-(1-(1-(1-(4-(dimethylamino)but-2-enoyl)-3-methoxyazetidine-3-carbonyl)piperidin-4-yl)-5-methyl-1H-pyrazol-4-yl)-4-methoxypyrazolo [1,5-a]pyridine-3-carbonitrile], the “FGFR1 Enz kobs” value in test [1] was determined as 0.00588 min⁻¹. Moreover, the “FGFR3 Enz kobs” value in test [2] is 0.1008 min⁻¹. In addition, the IC50 in test [3] worked out at 2 nM; in test [4], 1830 nM; in test [5] it was 168 nM; in test [6], 30 nM.
In the case of `COc1cc(-c2cnn(C3CCN(CC4(OC)CN(C(=O)/C=C/CN(C)C)C4)CC3)c2C)cn2ncc(C#N)c12` [Example 159, (E)-6-(1-(1-((1-(4-(dimethylamino)but-2-enoyl)-3-methoxyazetidin-3-yl)methyl)piperidin-4-yl)-5-methyl-1H-pyrazol-4-yl)-4-methoxypyrazolo [1,5-a]pyridine-3-carbonitrile], in test [1], the “FGFR1 Enz kobs” value came to 0.00408 min⁻¹. Moreover, the “FGFR3 Enz kobs” value in test [2] came to 0.0605 min⁻¹. In addition, the 50% inhibitory concentration (IC50) was found to be 3 nM in test [3], 737 nM in test [4], 144 nM in test [5] and 7 nM in test [6].
For `COc1cc(-c2cnn(C3CN(C(=O)C4(F)CN(C(=O)/C=C/CN(C)C)C4)C3)c2C)cn2ncc(C#N)c12` [Example 160, (E)-6-(1-(1-(1-(4-(dimethylamino)but-2-enoyl)-3-fluoroazetidine-3-carbonyl)azetidin-3-yl)-5-methyl-1H-pyrazol-4-yl)-4-methoxypyrazolo [1,5-a]pyridine-3-carbonitrile], the “FGFR1 Enz kobs” value in test [1] amounted to 0.00659 min⁻¹. Also, the “FGFR3 Enz kobs” value in test [2] came out at 0.08254 min⁻¹. Further, the IC50 in test [3] was determined as 16 nM; in test [4] it was 3280 nM; in test [5] it was 571 nM; in test [6], 179 nM.
For `COc1cc(-c2c(C)nn(C3CCN(C(=O)C4(F)CN(C(=O)/C=C/CN(C)C)C4)CC3)c2C)cn2ncc(C#N)c12` [Example 161, (E)-6-(1-(1-(1-(4-(dimethylamino)but-2-enoyl)-3-fluoroazetidine-3-carbonyl)piperidin-4-yl)-3,5-dimethyl-1H-pyrazol-4-yl)-4-methoxypyrazolo [1,5-a]pyridine-3-carbonitrile], in test [1], the “FGFR1 Enz kobs” value was found to be 0.00744 min⁻¹. Also, in test [2], the “FGFR3 Enz kobs” value worked out at 0.1129 min⁻¹. Besides, the IC50 came to 5 nM in test [3], 1620 nM in test [4], 589 nM in test [5] and 31 nM in test [6].
On to `CCc1c(-c2cc(OC)c3c(C#N)cnn3c2)cnn1C1CCN(C(=O)C2(F)CN(C(=O)/C=C/CN(C)C)C2)CC1` [Example 162, (E)-6-(1-(1-(1-(4-(dimethylamino)but-2-enoyl)-3-fluoroazetidine-3-carbonyl)piperidin-4-yl)-5-ethyl-1H-pyrazol-4-yl)-4-methoxypyrazolo [1,5-a]pyridine-3-carbonitrile], for which, in test [1], the “FGFR1 Enz kobs” value is 0.00455 min⁻¹. Further, in test [2], the “FGFR3 Enz kobs” value stood at 0.07862 min⁻¹. Further, the IC50 in test [3] was 48 nM; in test [4], 1440 nM; in test [5] it was 1720 nM; in test [6], 69 nM.
On to `COc1cc(-c2nn(C3CCN(C(=O)C4(F)CN(C(=O)/C=C/CN(C)C)C4)CC3)nc2C)cn2ncc(C#N)c12` [Example 163, (E)-6-(2-(1-(1-(4-(dimethylamino)but-2-enoyl)-3-fluoroazetidine-3-carbonyl)piperidin-4-yl)-5-methyl-2H-1,2,3-triazol-4-yl)-4-methoxypyrazolo [1,5-a]pyridine-3-carbonitrile], for which, in test [1], the “FGFR1 Enz kobs” value was 0.00486 min⁻¹. Further, the “FGFR3 Enz kobs” value in test [2] came to 0.03573 min⁻¹. Moreover, the IC50 in test [3] is 34 nM; in test [4], 1650 nM; in test [5], 1140 nM; in test [6], 1170 nM.
In the case of `COc1cc(-c2nnn(C3CCN(C(=O)C4(F)CN(C(=O)/C=C/CN(C)C)C4)CC3)c2C)cn2ncc(C#N)c12` [Example 164, (E)-6-(1-(1-(1-(4-(dimethylamino)but-2-enoyl)-3-fluoroazetidine-3-carbonyl)piperidin-4-yl)-5-methyl-1H-1,2,3-triazol-4-yl)-4-methoxypyrazolo [1,5-a]pyridine-3-carbonitrile], in test [1], the “FGFR1 Enz kobs” value was 0.00713 min⁻¹. The “FGFR3 Enz kobs” value in test [2] was found to be 0.1705 min⁻¹. Further, the IC50 is 3 nM in test [3], at least 5000 nM in test [4], 350 nM in test [5] and 15 nM in test [6].
